Values quoted from earlier work in patent US20140328945A1, “METHOD FOR STABILIZING AN ELECTROCHEMICALLY GENERATED SANITIZING SOLUTION HAVING A PREDETERMINED LEVEL OF FREE AVAILABLE CHLORINE AND pH” (Aquaxo, Inc., priority 2013, published 2014).

Legend:
Escherichia coli = settings: E. coli exposed to Hypochlorous Acid
E. coli [1] = settings: 2.6 ppm, dilute bacterial suspensions, in about 5 minutes
E. coli [2] = tested on: E. coli

Which results are given for OCl [Hypochlorous Acid]?
time to lose viability (Escherichia coli): less than 100 ms; growth inhibition (E. coli [1]): 100%; concentration required for 100% kill in 5 minutes (A. aerogenes): 0.08 ppm; concentration required for 100% kill in 5 minutes (S. typhosa): 0.06 ppm; concentration required for 100% kill in 5 minutes (S. clysvnteriae): 0.05 ppm; concentration required for 100% kill in 5 minutes (E. coli [2]): 0.03 ppm
